# Test results taken from paper PMC3020970, “K70Q Adds High-Level Tenofovir Resistance to “Q151M Complex” HIV Reverse Transcriptase through the Enhanced Discrimination Mechanism” (PLoS ONE, 2011).
# Read-outs that look alike come from different tables or passages of the source.
# Assays:
# [1] = test system: HIV-1 clinical isolate 2 (Q151Mc + K70Q); test: Single-cycle drug susceptibility assay (MAGIC-5 cells), clinical isolate 2; type: cell-based; conditions: Human immunodeficiency virus 1; clinical isolate 2, MAGIC-5 cells
# Protocol: (§1) HIV was isolated from fresh plasma immediately after collection of clinical samples from study participants at the outpatient clinic of the AIDS Clinical Center (ACC), International Medical Center of Japan. The Institutional Review Board approved this study (IMCJ-H13-80) and a written consent was obtained from all participants.
# (§2) Susceptibilities to various RT inhibitors were determined using the MAGIC-5 cells which are HeLa cells stably transfected with a β-galactosidase gene under the control of an HIV long terminal repeat promoter, and with vectors that express the CD4 receptor and the CCR5 co-receptor under the control of the CMV promoter as described previously. Briefly, MAGIC-5 cells were infected with diluted virus stock (100 blue forming units) in the presence of increasing concentrations of RT inhibitors, cultured for 48 h, fixed, and stained with X-Gal (5-bromo-4-chloro-3-indolyl-β-D-galacto-pyranoside). The stained cells were counted under a light microscope.
# [2] = test system: HIV-1 clinical isolate 1 (Q151Mc-containing); test: Single-cycle drug susceptibility assay (MAGIC-5 cells), clinical isolate 1; type: cell-based; conditions: Human immunodeficiency virus 1; clinical isolate 1, MAGIC-5 cells
# Protocol: as §1, §2
# HIV-1 NL4-3 strain (WT) = test: microbe, parasite or virus in culture; type: cell-based; conditions: Human immunodeficiency virus 1, NL43; WT, MAGIC-5 cells, Table S1; read-out: EC50
# Protocol: as §2
# HIV-1 Q151Mc [3] = conditions: cited from earlier work; for Increase in resistance: Q151Mc
# HIV-1 WT = test: Single-cycle drug susceptibility assay (MAGIC-5 cells), recombinant WT clone; type: cell-based; conditions: Human immunodeficiency virus 1, Table S2
# Protocol: (§3) The NL4-3-based molecular clone was constructed by replacing the pol-coding region with the HIV-1 BH10 strain. […] Each molecular clone was transfected into COS-7 cells. Cells were grown for 48 h, and culture supernatants were harvested and stored at −80°C until use.
# as §2
# HIV-1 Q151Mc/K70T = test: Single-cycle drug susceptibility assay (MAGIC-5 cells); type: cell-based; conditions: for EC50: Human immunodeficiency virus 1, MAGIC-5, Q151Mc/K70T; for Fold increase in EC50 compared to HIV-1 Q151Mc: Q151Mc/K70T vs Q151Mc
# Protocol: as §3, §2
# HIV-1 K70N = test: as above; type: cell-based; conditions: for EC50: Human immunodeficiency virus 1, MAGIC-5, K70N; for Fold increase in EC50 compared to HIV-1 WT: K70N vs WT
# Protocol: as §3, §2
# HIV-1 K70T = test: as above; type: cell-based; conditions: for EC50: Human immunodeficiency virus 1, MAGIC-5, K70T; for Fold increase in EC50 compared to HIV-1 WT: K70T vs WT
# Protocol: as §3, §2
# HIV-1 Q151Mc/K70N = test: as above; type: cell-based; conditions: for EC50: Human immunodeficiency virus 1, MAGIC-5, Q151Mc/K70N; for Fold increase in EC50 compared to HIV-1 Q151Mc: Q151Mc/K70N vs Q151Mc
# Protocol: as §3, §2
# HIV-1 Q151Mc [4] = test: as above; type: cell-based; conditions: Human immunodeficiency virus 1, MAGIC-5
# Protocol: as §3, §2
# HIV-1 Q151Mc/K70G = test: as above; type: cell-based; conditions: for EC50: Human immunodeficiency virus 1, MAGIC-5, Q151Mc/K70G; for Fold increase in EC50 compared to HIV-1 Q151Mc: Q151Mc/K70G vs Q151Mc
# Protocol: as §3, §2
# HIV-1 K70R = test: as above; type: cell-based; conditions: for EC50: Human immunodeficiency virus 1, MAGIC-5, K70R; for Fold increase in EC50 compared to HIV-1 WT: K70R vs WT
# Protocol: as §3, §2
# HIV-1 K70E = test: as above; type: cell-based; conditions: for EC50: Human immunodeficiency virus 1, MAGIC-5, K70E; for Fold increase in EC50 compared to HIV-1 WT: K70E vs WT
# Protocol: as §3, §2
# HIV-1 Q151Mc/K70E = test: as above; type: cell-based; conditions: for EC50: Human immunodeficiency virus 1, MAGIC-5, Q151Mc/K70E; for Fold increase in EC50 compared to HIV-1 Q151Mc: Q151Mc/K70E vs Q151Mc
# Protocol: as §3, §2
# HIV-1 K70Q = test: as above; type: cell-based; conditions: for EC50: Human immunodeficiency virus 1, MAGIC-5, K70Q
# Protocol: as §3, §2
# HIV-1 K70G = test: as above; type: cell-based; conditions: for EC50: Human immunodeficiency virus 1, MAGIC-5, K70G; for Fold increase in EC50 compared to HIV-1 WT: K70G vs WT
# Protocol: as §3, §2
# HIV-1 Q151Mc/K70R = test: as above; type: cell-based; conditions: for EC50: Human immunodeficiency virus 1, MAGIC-5, Q151Mc/K70R; for Fold increase in EC50 compared to HIV-1 Q151Mc: Q151Mc/K70R vs Q151Mc
# Protocol: as §3, §2
# HIV-1 Q151Mc/K70Q = test: as above; type: cell-based; conditions: for EC50: Human immunodeficiency virus 1, MAGIC-5, Q151Mc/K70Q
# Protocol: as §3, §2
# HIV-1 RT Q151Mc [5] = target: T1, HIV-1 RT Q151Mc (Human immunodeficiency virus type 1 group M subtype B, UniProt P03366, A661V/F676L/F715Y/Q750M/V674I); test: ATP-dependent rescue assay; type: biochemical
# T1 construct: made in house; host or cells: Escherichia coli BL21
# Protocol: (§4) Template/primer (T31/P18) terminated with TFV (T/PTFV) was prepared as described in Michailidis et al. 20 nM of T/PTFV was incubated at 37°C with HIV-1 RT (60 nM), either at various concentrations of ATP (0–7 mM) for 30 minutes, or for various times (0–120 minutes) with 3.5 mM ATP, in RT buffer containing 50 mM Tris-HCl, pH 7.8, and 50 mM NaCl, and 10 mM MgCl2. […] Reactions were quenched with 100% formamide containing traces of bromophenol blue and analyzed as described above. The dissociation constants (Kd) of the various enzymes for ATP used in the rescue reactions were determined by fitting the rescue data at various ATP concentrations, using non-linear regression fitting to hyperbola.
# HIV-1 RT K70Q [6] = target: T2, HIV-1 RT K70Q (Human immunodeficiency virus type 1 group M subtype B, UniProt P03366, K669Q); test: ATP-dependent rescue assay; type: biochemical
# T2 construct: made in house; host or cells: Escherichia coli BL21
# Protocol: as §4
# HIV-1 RT WT = target: T3, HIV-1 RT WT (Human immunodeficiency virus type 1 group M subtype B, UniProt P03366); test: ATP-dependent rescue assay; type: biochemical; conditions: rescue of TFV-terminated primer, 30 minutes, read-out: apparent KD-ATP
# T3 construct: made in house; host or cells: Escherichia coli BL21
# Protocol: as §4
# HIV-1 RT K70Q/Q151Mc [7] = target: T4, HIV-1 RT K70Q/Q151Mc (Human immunodeficiency virus type 1 group M subtype B, UniProt P03366, A661V/F676L/F715Y/K669Q/Q750M/V674I); test: ATP-dependent rescue assay; type: biochemical
# T4 construct: made in house; host or cells: Escherichia coli BL21
# Protocol: as §4
# HIV-1 RT K70Q/Q151Mc [8] = test: ATP-dependent rescue assay; type: biochemical; conditions: WT RT vs K70Q/Q151Mc RT, TFV-terminated primers, 3.5 mM ATP
# Protocol: as §4
# HIV-1 RT K70Q [9] = test: ATP-dependent rescue assay; type: biochemical; conditions: WT RT vs K70Q RT, TFV-terminated primers, 3.5 mM ATP
# Protocol: as §4
# HIV-1 RT Q151Mc [10] = test: ATP-dependent rescue assay; type: biochemical; conditions: WT RT vs Q151Mc RT, TFV-terminated primers, 3.5 mM ATP
# Protocol: as §4
Compound,EC50 [1],EC50 [2],EC50 (HIV-1 NL4-3 strain (WT)),EC50 (HIV-1 WT),EC50 (HIV-1 Q151Mc/K70T),Fold increase in EC50 compared to HIV-1 Q151Mc (HIV-1 Q151Mc/K70T),EC50 (HIV-1 K70N),Fold increase in EC50 compared to HIV-1 WT (HIV-1 K70N),EC50 (HIV-1 K70T),Fold increase in EC50 compared to HIV-1 WT (HIV-1 K70T),EC50 (HIV-1 Q151Mc/K70N),Fold increase in EC50 compared to HIV-1 Q151Mc (HIV-1 Q151Mc/K70N),EC50 (HIV-1 Q151Mc [4]),EC50 (HIV-1 Q151Mc/K70G),Fold increase in EC50 compared to HIV-1 Q151Mc (HIV-1 Q151Mc/K70G),EC50 (HIV-1 K70R),Fold increase in EC50 compared to HIV-1 WT (HIV-1 K70R),EC50 (HIV-1 K70E),Fold increase in EC50 compared to HIV-1 WT (HIV-1 K70E),EC50 (HIV-1 Q151Mc/K70E),also measured
"Nc1nc(NC2CC2)c2ncn([C@H]3C=C[C@@H](CO)C3)c2n1 [ABC, abacavir]",24.7 ± 2.89 µM,16.3 ± 2.52 µM,1.6 ± 0.46 µM,1.8 ± 0.22 µM,25 ± 2.3 µM,(1.7) fold,3.2 ± 0.3 µM,(1.8) fold,2.6 ± 0.21 µM,(1.4) fold,16 ± 2.1 µM,(1.1) fold,15 ± 2.1 µM,35 ± 2.7 µM,(2.5) fold,2.8 ± 0.31 µM,(1.6) fold,7.3 ± 0.12 µM,(4.1) fold,34 ± 2.1 µM,"Resistance (HIV-1 Q151Mc [3]; Q151M plus the four associated mutations ref 17, 18, 19, 20, 21): 5 fold; Fold increase in EC50 compared to HIV-1 Q151Mc (HIV-1 Q151Mc/K70E): (2.3) fold; EC50 (HIV-1 K70Q): 3.5 ± 0.6 µM; Fold increase in EC50 compared to HIV-1 WT (HIV-1 K70Q; K70Q vs WT): (1.9) fold; EC50 (HIV-1 K70G): 6.6 ± 0.29 µM; Fold increase in EC50 compared to HIV-1 WT (HIV-1 K70G): (3.7) fold; EC50 (HIV-1 Q151Mc/K70R): 14 ± 1 µM; Fold increase in EC50 compared to HIV-1 Q151Mc (HIV-1 Q151Mc/K70R): (0.9) fold; EC50 (HIV-1 Q151Mc/K70Q): 24 ± 2.9 µM; Fold increase in EC50 compared to HIV-1 Q151Mc (HIV-1 Q151Mc/K70Q; Q151Mc/K70Q vs Q151Mc): (1.6) fold"
"Nc1ncnc2c1ncn2[C@@H]1O[C@H](COP(=O)(O)OP(=O)(O)OP(=O)(O)O)[C@@H](O)[C@H]1O [ATP, adenosine triphosphate]",,,,,,,,,,,,,,,,,,,,,Kd (HIV-1 RT Q151Mc [5]): 2300 µM; Kd (HIV-1 RT K70Q [6]): 700 µM; Kd (HIV-1 RT WT): 400 µM; Kd (HIV-1 RT K70Q/Q151Mc [7]): 3100 µM
"C[C@H](Cn1cnc2c(N)ncnc21)OCP(=O)(O)O [TFV, tenofovir]",,,,,,,,,,,,,,,,,,,,,"Increase in resistance (HIV-1 Q151Mc [3]; Miller et al. ref 22): 1.8 fold; Increase in resistance (HIV-1 Q151Mc [3]; Smith et al. ref 23): 3.6 fold; ATP-based rescue activity of WT RT, fold faster than mutant RT (HIV-1 RT K70Q/Q151Mc [8]): 3 fold; ATP-based rescue activity of WT RT, fold faster than mutant RT (HIV-1 RT K70Q [9]): 1.5 fold; ATP-based rescue activity of WT RT, fold faster than mutant RT (HIV-1 RT Q151Mc [10]): 2.5 fold"
"O=c1[nH]cnc2c1ncn2[C@H]1CC[C@@H](CO)O1 [ddI, didanosine]",> 100 µM,29.3 ± 3.06 µM,2.5 ± 0.35 µM,2.4 ± 0.26 µM,13 ± 1.5 µM,(0.3) fold,3.7 ± 0.32 µM,(1.5) fold,8.9 ± 0.31 µM,(3.7) fold,109 ± 4.4 µM,(2.4) fold,45 ± 1 µM,59 ± 5 µM,(1.3) fold,3.3 ± 0.29 µM,(1.4) fold,13 ± 3.5 µM,(5.4) fold,30 ± 1.7 µM,Fold increase in EC50 compared to HIV-1 Q151Mc (HIV-1 Q151Mc/K70E): (0.7) fold; EC50 (HIV-1 K70Q): 12 ± 1.7 µM; EC50 (HIV-1 K70G): 16 ± 1.5 µM; Fold increase in EC50 compared to HIV-1 WT (HIV-1 K70G): (6.7) fold; EC50 (HIV-1 Q151Mc/K70R): 53 ± 3.1 µM; Fold increase in EC50 compared to HIV-1 Q151Mc (HIV-1 Q151Mc/K70R): (1.2) fold; EC50 (HIV-1 Q151Mc/K70Q): 108 ± 2.5 µM
